Literature values as cited in PMC4128962 (Journal of controlled release : official journal of the …, 2013).

pKa: about 3.0
Substance: Hyaluronic acid [HA]
